Entries after “also recorded” stand apart in the source; their conditions may differ.

One assay concerns the target T1, type IV collagen (Homo sapiens, UniProt P02462+P08572).
T1 construct: intact, native type IV collagen coated on plastic
The assay is described as follows: Inhibition of 3H-heparin binding to type IV collagen coated on plastic by peptide in solution. Conditions: peptide in solution 0.5 mg/ml to 5 μg/ml; 3H-heparin 500 ng per well; type IV collagen coated at 60 μg/ml. As for the experimental part:
Peptide Hep-III in solution (and not absorbed to plastic), was screened for the ability to inhibit the binding of heparin to intact, native type IV collagen coated on plastic. This experimental approach avoids problems due to differential coating of peptides in heparin binding assays. Type IV collagen at 60 μg/ml in PBS was coated on 96-well plates, using 50 μl per well and dried overnight at 28° C. The wells were then treated for two hours with 2 mg/ml BSA in wash buffer (described above in Example 1). Peptide Hep-III at various dilutions ranging from 0.5 mg/ml to 5 μg/ml in PBS and CHAPS (cholamido-propyl-dimethyl-ammoniopropane-sulfonate) (a detergent used to avoid non-specific sticking) was co-incubated with a standard amount of ^3 H-heparin (500 ng per well […]) for two hours at 37° C. and the mixture was then transferred to the collagen coated plate (50 μl) and allowed to incubate for another two hours at 37° C. The wells were then washed and radioactivity was counted as described above.

Assay [1] concerns melanoma cells. The assay is described as follows: Direct binding of 125I-labeled peptide Hep-III to melanoma cell surface. Also on record: species or system murine. Conditions: about 5,000 cells; 15 min, 4° C.; increasing peptide concentrations. As to the method:
(§1) Endothelial and melanoma cells were grown in culture as described in Examples 4, 5, and 6 (supra). Cells used for this type of experiment were not labeled with radioactivity. Unlabeled cells were harvested by trypsinization (supra) on the day of the experiment. About 5,000 cells were mixed with 50 μl of a given concentration of peptide Hep-III in solution. Increasing concentrations of peptide Hep-III were used. The cells were incubated with the iodinated peptide for 15 min. at 4° C. and they were then pelleted by centrifugation. The cells were then resuspended and washed 3 times with DMEM containing 2 mg/ml BSA and 50 mM Hepes. Following the washes, the cells were pelleted for a final time in plastic tubes, the supernatant was decanted and the radioactivity of the pellet was quantitated in a Beckman scintillation counter. The binding of peptide Hep-III to endothelial cells is saturable (FIG. 10B)--an indication of specificity. […] These experiments indicate that peptide Hep-III specificity interacts with the surfaces of both endothelial cells and melanoma.

The nature of assay [2]: Heparin binding to plastic plates coated with peptide. As to the method:
The ability of the synthesized peptide Hep-III to interact with heparin when coated on 96-well plastic plates was evaluated. Stock solutions of peptide Hep-III at a concentration of 500 μg/ml were prepared in phosphate-buffered saline containing 0.02% sodium azide. Fifty μl from each concentration was coated on the 96-well plates and left to dry overnight at 28° C. Then, wells were treated for two hours with […] of 2 mg/ml BSA and 6 mM phosphate, 10 mM NaCl, 68 μM CaCl2, pH 6.8 (wash buffer) in order to minimize non-specific binding. Next 50 μl of ^3 H-heparin (10 μg/ml) was added at increasing concentrations (0 to 1400 ng/well) for two hours at 37° C. The wells were then washed three times with wash buffer containing 0.05% Triton X-100 and finally they were incubated for thirty minutes at 60° C. with 200 μl of 0.5N NaOH and 1% SDS. The amount of ^3 H-heparin bound at each concentration was quantitated with a Beckman LS-3801 liquid scintillation counter. […] Comparison with data obtained using exactly the same methodology indicate that peptide Hep-III is at least 10 times stronger than peptide Hep-I (TS-2 in U.S. Pat. No. 4,876,332) (see FIG. 5B) and about 100 times stronger than type IV collagen, when used in the same coating concentrations.

Assay [3] relates to Bovine aortic endothelial cells. The assay can be described thus: Direct adhesion of endothelial cells to peptide-coated plastic. The format is cell-based. Conditions: coated at increasing concentrations; 120 min, 37° C. As for the experimental part: Bovine aortic endothelial cells were isolated according to the following protocol. Aortas were obtained from a local slaughterhouse, washed in cold phosphate buffered saline (PBS) (136 mM NaCl, 2.6 mM KCl, 15.2 mM Na2 HPO4, pH 7.2) and processed within 2 hours. Crude collagenase (CLS III, 125-145 units per mg dry weight, Cooper Biomedical) was used at 2 mg/ml in Dulbecco's modified Eagle's medium (DMEM) (GIBCO). The vessel was clamped at the distal end, filled with the collagenase-PBS solution and digestion was carried out for 10 minutes. The lumenal contents were harvested, followed by the addition of fresh collagenase for two additional 10-minute periods. The enzyme-cell suspensions were added to an equal volume of DMEM containing 10% fetal bovine serum (FBS) to inhibit the enzyme and spun in a centrifuge at 400×g for 10 minutes. The resulting cell pellet was resuspended in DMEM containing 10% FBS, 100 units/ml of penicillin G, 100 μg/ml of streptomycin and 100 μg/ml of crude fibroblast growth factor. Cells are in 75 cm^2 flasks in a humidified 5% CO2 atmosphere at 37° C. Cultures were fed twice a week with the same medium and cells were used in assays when approximately 75% confluent. The cells were labeled for 24 hours prior to use with a mixture of ^35 S-labeled amino acids (3 mCi). […]

The test system of another assay is K-1735-M4 melanoma cells. The assay can be described thus: Adhesion of melanoma cells to peptide-coated wells. Conditions: 120 minutes, 37° C. Format: cell-based, murine. The text has this: Highly metastatic murmine melanoma cells, K-1735-M4 were originally provided by Dr. I. J. Fidler of Anderson Hospital, University of Texas Health Sciences Center, Houston, Tex. When the cells were received, a large number of early passage cells were propagated and frozen in liquid nitrogen. The tumor cells are usually cultured in vitro for no longer than six weeks. Following this period, the cells are discarded and new cells withdrawn from storage for use in further in vitro or in vivo experiments. This precaution is taken to minimize phenotypic drift that can occur as a result of continuous in vitro passage. The cells were cultured in Dulbecco's Modified Eagle's Medium containing 5% heat inactivated fetal calf serum. The cultures were grown in 37° C. incubators with a humidified atmosphere containing 5% CO2. Cells were subcultured twice weekly by releasing cells gently from the flask, using 0.05% trypsin and 1 mM EDTA.
Cultures of cells which were 60-80% confluent were metabolically labeled for 24 hours with the addition of 3 mCi/ml of ^3 H-td (tritiated thymidine). On the day of the assay, the cells were harvested by trypsinization, the trypsin was inhibited by the addition of serum, and the cells were washed free of this mixture and resuspended in DMEM buffered with HEPES at pH 7.2. […] The solubilized cells were then quantitated using a liquid scintillation counter. […]

In assay [4] the test system is endothelial cells. The assay is described as follows: Inhibition of 125I-Hep-III binding to endothelial cell surface by excess unlabeled peptide. Also on record: species or system bovine. Conditions: unlabeled peptide up to 500-fold excess; 15 min, 4° C. As to the method:
(§2) Melanoma and endothelial cells were grown in culture as discussed in Examples 4, 5, 6, and 7A (supra). On the day of the experiment, the cells were harvested by trypsinization (supra) and were co-incubated with 50 μl of peptide Hep-III. 50 μl a constant amount of ^125 I-labeled peptide Hep-III was mixed with increasing concentrations of unlabeled peptide Hep-III or a control peptide (maximal excess of unlabeled peptide: 500-fold over radiolabeled Hep-III). 50 μl of each concentration of unlabeled peptide which was mixed with radiolabeled Hep-III were then added to cells in suspension (5,000 cells per concentration of peptide). The cells were incubated with the mixture of unlabeled-radiolabeled peptide for 15 min. at 4° C. and they were then pelleted. The cells were subsequently washed and bound radioactivity was quantitated as described in Example 7A. […] These experiments provide confirmation that a specific interaction occurs between melanoma and endothelial-cell surfaces and peptide Hep-III.

Assay [5] deals with melanoma cells. The assay is described as follows: Inhibition of 125I-Hep-III binding to melanoma cell surface by excess unlabeled peptide. Also on record: species or system murine. Conditions: unlabeled peptide up to 500-fold excess; 15 min, 4° C. As to the method:
as §2

The subject of assay [6] is endothelial cells. The assay is described as follows: Direct binding of 125I-labeled peptide Hep-III to endothelial cell surface. Also on record: species or system bovine. Conditions: about 5,000 cells; 15 min, 4° C.; increasing peptide concentrations. As for the experimental part:
as §1

A further assay has as its system melanoma cell line (M4). The assay can be described thus: Inhibition of melanoma cell adhesion to type IV collagen-coated wells by peptide in solution. The format is cell-based, murine. Conditions: cells coincubated 20 min with peptide in solution, then 20 min on collagen-coated wells. As for the experimental part:
Cells were grown, labeled and harvested as described in Example 4, but after detachment and washing they were coincubated for 20 min. in the presence of various concentrations of peptide Hep-III in solution. They were then applied for another 20 min. on type IV collagen-coated plastic wells. At the end of the incubation the same treatment described in Example 4 was used.

The target of the next assay is T2, peptide Hep-III (Homo sapiens, UniProt P02462).
T2 construct: residues 531-543 from the amino-terminus of the α1 chain of type IV collagen; The single letter amino acid code for this polypeptide is GEFYFDLRLKGDK; made in house; host or cells: chemical solid-phase (Merrifield) peptide synthesis
The assay can be described thus: Competition of 3H-heparin binding to coated peptide Hep-III by glycosaminoglycans. Conditions: Hep-III coated from 500 μg/ml; 3H-heparin 50,000 cpm per well; unlabeled glycosaminoglycan in increasing amounts. As for the experimental part:
To check the specificity of the interaction between heparin and peptide Hep-III or whether the heparin structure was also critical to this interaction, heparin along with other sulfated glucosaminoglycans, dextran and chondroitin sulfate were used in competition experiments. A standard amount of […] of a solution containing 500 μg/ml of peptide Hep-III was coated on 96-well plates as described above. Wells were treated for two hours with 2 mg/ml BSA in wash buffer. Then, a final volume of 50 μl was added to each well, containing a standard amount of ^3 H-heparin (50,000 cpm per well) and various amounts of non-radioactive heparin, dextran or chondroitin sulfate. After incubating for two hours at 37° C., the wells were washed and radioactivity was counted as described above in Example 1.

[7] abbreviates: same methodology, same coating concentrations.

T1 sequence (P02462 173-1669): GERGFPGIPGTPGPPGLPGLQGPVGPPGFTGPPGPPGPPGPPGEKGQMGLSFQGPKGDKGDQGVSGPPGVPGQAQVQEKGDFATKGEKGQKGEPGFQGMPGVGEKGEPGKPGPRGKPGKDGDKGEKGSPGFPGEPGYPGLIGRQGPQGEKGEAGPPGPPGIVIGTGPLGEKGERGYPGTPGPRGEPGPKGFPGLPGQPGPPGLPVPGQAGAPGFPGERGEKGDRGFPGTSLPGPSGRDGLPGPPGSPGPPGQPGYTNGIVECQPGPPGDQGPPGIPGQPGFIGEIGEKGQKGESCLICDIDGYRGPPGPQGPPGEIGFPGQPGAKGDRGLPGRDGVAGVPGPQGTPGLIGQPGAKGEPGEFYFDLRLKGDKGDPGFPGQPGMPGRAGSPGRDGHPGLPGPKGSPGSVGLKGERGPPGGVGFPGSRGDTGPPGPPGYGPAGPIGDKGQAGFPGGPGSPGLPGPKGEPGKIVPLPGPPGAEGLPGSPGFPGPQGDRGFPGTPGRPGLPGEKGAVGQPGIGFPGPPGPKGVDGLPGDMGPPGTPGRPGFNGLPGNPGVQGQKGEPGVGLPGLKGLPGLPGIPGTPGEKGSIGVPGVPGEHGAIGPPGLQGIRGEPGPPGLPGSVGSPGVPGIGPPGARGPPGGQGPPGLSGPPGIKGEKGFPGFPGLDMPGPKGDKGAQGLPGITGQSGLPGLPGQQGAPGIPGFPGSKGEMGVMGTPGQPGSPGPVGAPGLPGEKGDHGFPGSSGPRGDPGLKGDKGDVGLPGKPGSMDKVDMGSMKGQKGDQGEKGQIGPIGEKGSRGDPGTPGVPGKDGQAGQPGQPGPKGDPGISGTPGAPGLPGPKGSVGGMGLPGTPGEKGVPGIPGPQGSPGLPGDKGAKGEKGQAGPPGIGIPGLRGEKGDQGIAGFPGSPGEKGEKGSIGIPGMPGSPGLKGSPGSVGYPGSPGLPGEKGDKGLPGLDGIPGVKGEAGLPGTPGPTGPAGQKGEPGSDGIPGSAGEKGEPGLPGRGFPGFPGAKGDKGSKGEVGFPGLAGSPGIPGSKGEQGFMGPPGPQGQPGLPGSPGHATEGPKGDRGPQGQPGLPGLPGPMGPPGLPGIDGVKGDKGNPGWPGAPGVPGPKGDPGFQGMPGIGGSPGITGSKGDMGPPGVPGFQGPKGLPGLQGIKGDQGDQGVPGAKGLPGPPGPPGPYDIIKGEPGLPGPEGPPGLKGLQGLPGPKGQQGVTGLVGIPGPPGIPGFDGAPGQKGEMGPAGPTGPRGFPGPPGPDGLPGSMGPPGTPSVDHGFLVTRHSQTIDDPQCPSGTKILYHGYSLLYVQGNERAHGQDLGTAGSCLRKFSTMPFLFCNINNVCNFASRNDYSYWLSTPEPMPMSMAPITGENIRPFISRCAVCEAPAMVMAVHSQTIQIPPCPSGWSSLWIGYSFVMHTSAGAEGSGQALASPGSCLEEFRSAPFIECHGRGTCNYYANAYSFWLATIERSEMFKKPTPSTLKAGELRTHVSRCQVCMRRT
T1 sequence (P08572 184-1712): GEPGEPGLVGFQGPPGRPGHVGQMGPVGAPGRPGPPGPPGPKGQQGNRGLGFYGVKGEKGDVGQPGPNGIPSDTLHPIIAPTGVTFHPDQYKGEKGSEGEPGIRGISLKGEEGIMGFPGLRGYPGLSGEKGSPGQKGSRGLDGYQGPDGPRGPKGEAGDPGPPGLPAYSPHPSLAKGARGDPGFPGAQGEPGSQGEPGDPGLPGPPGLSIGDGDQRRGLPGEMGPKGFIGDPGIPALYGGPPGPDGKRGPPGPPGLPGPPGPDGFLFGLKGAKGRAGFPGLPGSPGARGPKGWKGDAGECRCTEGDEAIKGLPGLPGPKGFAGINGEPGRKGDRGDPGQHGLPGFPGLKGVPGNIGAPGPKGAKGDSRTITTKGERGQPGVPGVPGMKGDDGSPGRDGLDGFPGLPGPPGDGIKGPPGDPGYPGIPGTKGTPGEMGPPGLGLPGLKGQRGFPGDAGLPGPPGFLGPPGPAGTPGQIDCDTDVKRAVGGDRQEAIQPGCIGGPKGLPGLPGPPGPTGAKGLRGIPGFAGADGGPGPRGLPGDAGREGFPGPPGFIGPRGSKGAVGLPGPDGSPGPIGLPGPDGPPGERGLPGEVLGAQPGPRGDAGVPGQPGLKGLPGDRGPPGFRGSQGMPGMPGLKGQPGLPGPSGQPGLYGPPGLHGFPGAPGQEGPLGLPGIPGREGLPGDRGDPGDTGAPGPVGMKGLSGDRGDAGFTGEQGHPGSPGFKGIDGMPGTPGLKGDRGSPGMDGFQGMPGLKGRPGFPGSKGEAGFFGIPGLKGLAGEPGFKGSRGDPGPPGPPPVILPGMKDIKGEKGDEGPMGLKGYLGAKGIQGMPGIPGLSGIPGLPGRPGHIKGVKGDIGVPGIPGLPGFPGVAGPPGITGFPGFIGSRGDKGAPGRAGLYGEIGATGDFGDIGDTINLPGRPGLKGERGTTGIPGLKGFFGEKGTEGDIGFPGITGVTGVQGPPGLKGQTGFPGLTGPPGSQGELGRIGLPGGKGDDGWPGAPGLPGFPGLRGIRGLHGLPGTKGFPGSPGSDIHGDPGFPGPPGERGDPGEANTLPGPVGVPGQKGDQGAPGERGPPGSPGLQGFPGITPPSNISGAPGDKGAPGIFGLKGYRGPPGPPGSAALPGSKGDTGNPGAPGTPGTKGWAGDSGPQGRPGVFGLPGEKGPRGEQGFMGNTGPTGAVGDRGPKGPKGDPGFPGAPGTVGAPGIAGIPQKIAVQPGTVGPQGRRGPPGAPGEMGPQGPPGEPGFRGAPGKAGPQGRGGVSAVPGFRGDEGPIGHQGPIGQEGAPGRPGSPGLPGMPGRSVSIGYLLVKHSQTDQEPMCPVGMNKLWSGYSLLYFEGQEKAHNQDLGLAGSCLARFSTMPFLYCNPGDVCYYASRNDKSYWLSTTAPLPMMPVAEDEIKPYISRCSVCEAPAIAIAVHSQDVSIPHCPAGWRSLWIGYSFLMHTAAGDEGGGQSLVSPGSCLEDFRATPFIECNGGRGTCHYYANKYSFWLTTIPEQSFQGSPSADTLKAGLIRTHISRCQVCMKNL

Regarding “gly-glu-phe-tyr-phe-asp-leu-arg-leu-lys-gly-asp-lys (GEFYFDLRLKGDK) [Hep-III, …; type IV collagen residues 531-543 from the amino-terminus of the α1 chain]”, the “inhibition of heparin binding to type IV collagen” value in the assay with type IV collagen is on record as “strong inhibitor of heparin binding to type IV collagen”. The “binding of 125I-labeled peptide to melanoma cell surface” value in the assay with melanoma cells [1] is “with a tendency for saturation at the higher concentrations used”. In assay [2] (peptide coated on 96-well plastic plates, 3H-heparin 0 to 1400 ng/well, 2 h, 37° C.), the “binding of 3H-heparin to coated peptide” value is given as “extremely potent promoter of heparin-binding to synthetic substrates; also recorded: strong binding to heparin; also recorded: very potent binder of heparin”. Moreover, in assay [2] (setting [7]), the “heparin binding strength relative to peptide Hep-I (TS-2)” value is listed as “at least 10 times” and the “heparin binding strength relative to type IV collagen” value is “about 100 times”. Further, the “endothelial cell adhesion to coated substrate (in words)” value in assay [3] was “promotes substantial adhesion of endothelial cells even at very low plating concentrations”. Besides, the “maximal melanoma cell adhesion” value in the assay with K-1735-M4 melanoma cells (peptide coated at increasing concentrations) is recorded as 70,000 dpm. The melanoma cell adhesion in the assay on K-1735-M4 melanoma cells (peptide concentration 0.5 μg/well) was 80 % of input. Moreover, in the assay on endothelial cells [4], the “competition of radiolabeled Hep-III binding to endothelial cells by unlabeled peptide” value is on record as “could efficiently compete”. In the assay with melanoma cells [5], the “competition of radiolabeled Hep-III binding to melanoma cells by unlabeled peptide” value is “can be competed only by an excess of unlabeled peptide Hep-III”. Further, in the assay on endothelial cells [6], the “binding of 125I-labeled peptide to endothelial cell surface” value is listed as “saturable”. Besides, in the assay with melanoma cell line (M4), the “decrease of melanoma cell binding to type IV collagen-coated substrata” value was “dramatically decrease the binding of melanoma cells”.
For chondroitin sulfate, the “competition for the binding of tritiated heparin to peptide Hep-III” value at peptide Hep-III is “cannot mimic this effect except at extremely high concentrations”.
For the substance heparin, on peptide Hep-III, the “competition for the binding of tritiated heparin to peptide Hep-III” value was “able to compete for the binding of tritiated heparin to peptide Hep-III at very low concentrations”.
Same read-out and setting: to dextran belongs “substantially more dextran is needed to achieve similar levels of competition”.

The values are drawn from patent US5152784A, “Prosthetic devices coated with a polypeptide with type IV collagen activity” (Regents of the University of Minnesota, priority 1991, dated 1992).
